Results published in patent publication US4876248A, “Anti-inflammatory products derived from methylene-diphosphonic acid, and process for their preparation” (priority 1982, dated 1989).
Counter-ions that a name gives are not always drawn.

Tested on: Adjuvant arthritis
Test: Adjuvant arthritis in the rat (in vivo study), weight of the paw
Parameters: species or system rat (male Sprague-Dawley)
Conditions: 10 mg/kg per day cutaneously, 6 days per week, 3 weeks, started 15 days after Mycobacterium tuberculosis injection, right rear paw

Row | SMILES | Adjuvant arthritis, weight of the paw % inhibition (difference in average paw weight of treated arthritic rats relative to reference arthritic rats) [%]
1 | CSC(P(=O)(O)O)P(=O)(O)O [SR 41 036, Tri-(tertiary butylamine) salt of methylthio-methylene-diphosphonic acid] | 23
2 | CC(C)SC(P(=O)(O)O)P(=O)(O)O [SR 41 100] | 37
3 | O=P(O)(O)C(Sc1ccccn1)P(=O)(O)O [SR 41 179] | 25
4 | O=P(O)(O)C(Sc1nc2ccccc2[nH]1)P(=O)(O)O [SR 41 263] | 19
5 | O=P(O)(O)C(Sc1ncccn1)P(=O)(O)O [SR 41 264] | 43
6 | NCCSC(P(=O)(O)O)P(=O)(O)O [SR 41 266] | 29
7 | CSCCC(P(=O)(O)O)P(=O)(O)O [SR 41 273, Tertiary butylamine salt of 3-methylthio-propylidene-1,1-diphosphonic acid] | 39
8 | CC(C)OP(=O)(OC(C)C)C(CCCSc1ccccc1)P(=O)(OC(C)C)OC(C)C [SR 41 341, Tetraisopropyl 4-phenylthio-butylene-1,1-diphosphonate] | 24
9 | O=P(O)(O)C(CCCSc1ccccc1)P(=O)(O)O [SR 41 342, Di-(tertiarybutylamine salt) of 4-phenylthio-butylidene-1,1-diphosphonic acid] | 38
10 | CN(C)CCSC(P(=O)(O)O)P(=O)(O)O [SR 41 344] | 35
11 | Nc1ccccc1SC(P(=O)(O)O)P(=O)(O)O [SR 41 388] | 42
12 | CCCCCCCCSC(P(=O)(O)O)P(=O)(O)O [SR 41 421] | 55
13 | CC(C)OP(=O)(OC(C)C)C(Sc1ccccc1C(=O)O)P(=O)(OC(C)C)OC(C)C [SR 41 452] | 15
14 | CCCCCCCCCCCCCCCCSC(P(=O)(O)O)P(=O)(O)O [SR 41 453, Monoammonium hexadecylthiomethylene-diphosphonate] | 58
15 | CCCCCCCCSC(P(=O)(OC(C)C)OC(C)C)P(=O)(OC(C)C)OC(C)C [SR 41 454, Tetraisopropyl n-octylthiomethylene-diphosphonate] | 33
16 | O=P(O)(O)C(Sc1nc2cc(Cl)ccc2[nH]1)P(=O)(O)O [SR 41 480] | 40

Row | SMILES | Adjuvant arthritis, weight of the paw % inhibition (difference in average paw weight of treated arthritic rats relative to reference arthritic rats) [%]
17 | O=P(O)(O)C(Sc1nc2ccccc2s1)P(=O)(O)O [SR 41 481, Tri-(tertiarybutylamine) salt of benzothiazol-2-yl-thiomethylene-diphosphonic acid] | 40
18 | O=P(O)(O)C(Sc1ccccc1)P(=O)(O)O [SR 41 482] | 41
19 | O=P(O)(O)C(CCCCS)P(=O)(O)O [SR 41 527, Di-(tertiarybutylalmine) salt of 5-mercapto-pentylidene-1,1-diphosphonic acid] | 34
20 | O=P(O)(O)C(Sc1cccs1)P(=O)(O)O [SR 41 549, thien-2-yl-thiomethylene-diphosphonic acid] | 34
21 | CCCCCCCSC(P(=O)(O)O)P(=O)(O)O [SR 41 552] | 36
22 | O=P(O)(O)C(Sc1ccccc1Cl)P(=O)(O)O [SR 41 689] | 31
23 | O=P(O)(O)C(O)(CCCSc1ccc(Cl)cc1)P(=O)(O)O [SR 41 903, Di-(tertiarybutylamine) salt of 4-(4-chlorophenylthio)-1-hydroxy-butylidene-1,1-diphosphonic acid] | 55
24 | O=P(O)(O)C(O)(CCCCSc1ccc(F)cc1)P(=O)(O)O [SR 41 909, Di-(tertiarybutylamine) salt of 5-(4-fluorophenylthio)-1-hydroxy-pentylidene-1,1-diphosphonic acid] | 53
25 | O=P(O)(O)C(CCCCCCSc1ccc(Cl)cc1)P(=O)(O)O [SR 41 959] | 60
26 | CCCCCSCCCC(O)(P(=O)(O)O)P(=O)(O)O [SR 41 961] | 53
27 | CCCSCCCCCC(O)(P(=O)(O)O)P(=O)(O)O [SR 42 015] | 47
28 | O=P(O)(O)C(O)(CCCCSc1ccc(Cl)cc1)P(=O)(O)O [SR 42 016] | 48
29 | O=P(O)(O)C(O)(CCSc1ccccc1)P(=O)(O)O [SR 42 017] | 49
30 | CSCCCCCCCCCCC(O)(P(=O)(O)O)P(=O)(O)O [SR 42 097] | 50
31 | O=P(O)(O)C(CCCCSc1ccccn1)P(=O)(O)O [SR 42 099, 5-(pyrid-2-yl-thio)-pentylidene-1,1-diphosphonic acid] | 44
